These results are taken from PMC9114115, “Property space mapping of Pseudomonas aeruginosa permeability to small molecules” (Scientific Reports, 2022).

The subject of data set [1] is P. aeruginosa PΔ3-Pore. Nature of the data set: MIC by two-fold dilution, barrierless PΔ3-Pore. Type of data set: cell-based, Pseudomonas aeruginosa. The following applies: for MIC: Pseudomonas aeruginosa; for MICs: P∆3-Pore, Table S2. The gist of the method:
(§1)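 Media differed between series: LB or MOPS-M9. Hyperporinated strains express FhuA from PLAC at the attTn7 site, and the efflux-deficient ones are ΔmexAB ΔmexCD ΔmexXY.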

Data set [2] relates to P. aeruginosa PAO1. Nature of the data set: MIC by two-fold dilution, wild type PAO1. The conditions noted are these: Pseudomonas aeruginosa. The format is cell-based, Pseudomonas aeruginosa. In a few lines: as §1
For data set [3], the system named is P. aeruginosa PAO1-Pore. The data set can be described thus: MIC by two-fold dilution, hyperporinated PAO1-Pore. The format is cell-based, Pseudomonas aeruginosa. The conditions noted are these: for MIC: Pseudomonas aeruginosa; for MICs: PAO1-Pore, LB broth, Table S2. The gist of the method:
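Read-out: MIC. Method: two-fold serial dilution in LB broth or MOPS-M9, by series. Culture: 37 °C, aerated. Genotypes: PAO1 attTn7::PLAC-fhuA; ΔmexAB ΔmexCD ΔmexXY attTn7::PLAC-fhuA.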

For data set [4], the system named is P. aeruginosa PΔ3. The data set can be described thus: microbe, parasite or virus in culture. Type of data set: cell-based, Pseudomonas aeruginosa. The conditions noted are these: Pseudomonas aeruginosa. The gist of the method: as §1
In data set [5] the test system is four strains of P. aeruginosa. Type of data set: cell-based, Pseudomonas aeruginosa. The protocol:
Cells were sub-cultured (50–100 mL) 1:100 in fresh LB broth in two flasks per strain. At OD600 0.3 (~ 1.5 to 2 h of incubation), the expression of the pore was induced with 0.1 mM IPTG (final concentration) in one of the flasks and cells were grown for additional 1 to 1.5 h (OD600 1- 1.5). Cells were collected by centrifugation at room temperature (RT) and washed in PMG Buffer (50 mM KPi, pH 7.0, 1 mM MgSO4, 0.4% glucose, prepared fresh) and concentrated 20x (i.e., 100 mL culture resuspended in 5 ml of PMG Buffer with final OD600 ~ 20–30). Assays were performed in 96-well 1.0 µm Glass Fiber Type B filters plates (Millipore). […]
[…] Filter plates were dried, removed from the vacuum manifold and left in the hood overnight to dry completely.

For data set [6], the system named is P. aeruginosa PAO1 cells. The data set can be described thus: LC–MS quantification of intracellular accumulation, PAO1.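 Also: slope of accumulation versus external concentration fitted as a line through zero.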 The conditions noted are these: 10-80 µM. In a few lines:
(§2)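 Cells grown in MOPS-M9 (pH 7.2) with 1% glycerol, Pore strains induced with 0.1 mM IPTG, concentrated 10X in spent medium and exposed to 10, 20, 40, 80 µM compound for 1 and 40 min at RT. Filter-collected cells extracted with methanol; compound quantified by positive-ion LC–MS against calibration in PAO1 cell extract, no-cell filter controls.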

For data set [7], the system named is P. aeruginosa PΔ3-Pore cells. The data set can be described thus: LC–MS quantification of intracellular accumulation, PΔ3-Pore.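 Also: slope of accumulation versus external concentration fitted as a line through zero.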 The following applies: 10-80 µM. The gist of the method:
as §2

Data set [8] deals with P. aeruginosa PΔ3 cells. The conditions noted are these: 10-80 µM. In a few lines: as §2
For data set [9], the system named is P. aeruginosa PAO1-Pore cells. The data set can be described thus: LC–MS quantification of intracellular accumulation, PAO1-Pore.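 Also: slope of accumulation versus external concentration fitted as a line through zero.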 The conditions noted are these: 10-80 µM. The gist of the method:
as §2

Data set [10] concerns P. aeruginosa hyperporinated strains. The data set can be described thus: Vancomycin susceptibility spot assay on minimal medium. The following applies: MOPS-M9 medium, in the presence of inducer. Type of data set: cell-based, Pseudomonas aeruginosa. The protocol: PAO1-Pore and PΔ3-Pore were grown at 37 °C overnight with shaking at 225 rpm in 50 mM MOPS-M9 (pH 7.2) Minimal Medium supplemented with 1% glycerol[42],[43].

The mark [11] stands for this setting: PAO1, LB broth, Table 1, read-out: MIC.
Setting [12] is: radioactively labeled compound, four strains, 20 min.

≈ marks a conversion by molar mass, not a printed value. Where “and” joins values, the source holds several entries; their conditions need not be identical. Equal entries are not always repeated. Where two headings read alike, the source gives them in different places.
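For Concentration slopes of accumulation, PΔ3 1 min in this document: slope of accumulation versus external concentration fitted as a line through zero.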
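For Concentration slopes of accumulation, PΔ3 40 min in this document: slope of accumulation versus external concentration fitted as a line through zero.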

On to `CC(C)Nc1cccnc1N1CCN(C(=O)c2cc3cc(NS(C)(=O)=O)ccc3[nH]2)CC1` [Delavirdine], for which the MIC in data set [1] (PΔ3-Pore, LB broth, Table 1) is above 1000 µM; in [2] (setting [11]), above 1000 µM; in data set [3] (PAO1), above 1000 µM; in [4] it was above 1000 µM. For the same molecule, the “effect of efflux inactivation and hyperporination on accumulation” value (shortened to “effect … on accumulation”) is “equally affected by inactivation of efflux and hyperporination” in [5] (setting [12]); “Hyperporination had the strongest effect” in data set [5] (radioactively labeled compound, four strains, 20 min, listed as [^3H]-delavirdine).

Take `O=C1Nc2ccc(Cl)cc2[C@@](C#CC2CC2)(C(F)(F)F)O1` [Efavirenz]: the MIC is 25000 µM (≈ 7890 µg/mL) in data set [1] (PΔ3-Pore cells); 25 µM and 7.89 µg/mL in data set [1] (PΔ3-Pore, LB broth, Table 1); above 1000 µM in data set [2] (setting [11]); above 1000 µM in [3] (PAO1); above 1000 µM in data set [4]. For the same molecule, the “effect … on accumulation” value in data set [5] (not told) was “Hyperporination had the strongest effect”.

For the molecule `COCCc1ccc(OCC(O)CNC(C)C)cc1` (centres unmarked) [Metoprolol], the MIC is above 1000 µM in data set [1] (PΔ3-Pore, LB broth, Table 1); above 1000 µM in [2] (setting [11]); above 1000 µM in [3] (PAO1); above 1000 µM in [4]. For the same molecule, the “effect … on accumulation” value in data set [5] (setting [12]) is on record as “not affected by either of the two barriers”.

In the case of `NC(=O)Cc1cccc(C(=O)c2ccccc2)c1N` [Nepafenac], the MIC in data set [1] (PΔ3-Pore, LB broth, Table 1) was above 1000 µM; in [2] (PAO1), above 1000 µM; in data set [3] (PAO1), above 1000 µM; in data set [4], above 1000 µM. Also, the “effect … on accumulation” value in data set [5] (setting [12]) is on record as “Hyperporination had the strongest effect”.

Regarding `O=C(O)c1cn(C2CC2)c2cc(N3CCNCC3)c(F)cc2c1=O` [OU-0001036, Ciprofloxacin], the MIC in data set [1] (PΔ3-Pore, LB broth, Table 1) is 0.02 µM and 0.01 µg/mL; in [1] (read-out: MICs, P∆3-Pore, MOPS-M9 medium), 0.031 µM and 0.01 µg/mL; in [2] (setting [11]), 0.19 µM and 0.06 µg/mL; in data set [2] (PAO1, MOPS-M9 medium, read-out: MICs), 1 µM and 0.33 µg/mL; in [3] (PAO1), 0.09 µM and 0.03 µg/mL; in data set [3] (PAO1, read-out: MICs), 0.0625 µM and 0.02 µg/mL. The MIC is 0.05 µM and 0.02 µg/mL in data set [4]; 0.25 µM and 0.08 µg/mL in data set [4] (read-out: MICs). Also, the figures for the MICs in [1] (LB broth) and in data set [3] were 0.02 and 0.09, respectively. In [6] (1 min incubation), the “Concentration slopes of accumulation, PAO1_1 min” value turned out to be 1.15. Further, in [6] (40 min incubation), the “Concentration slopes of accumulation, PAO1_40 min” value was 2.47. In addition, the “Concentration slopes of accumulation, PΔ3-Pore_1 min” value in data set [7] (1 min incubation) is given as 2.77. For the same molecule, the “Concentration slopes of accumulation, PΔ3-Pore_40min” value in data set [7] (40 min incubation) is listed as 2.77. The “effect of hyperporination on antibacterial activity” value in data set [3] (MIC PAO1 vs PAO1-Pore) is reported as “two-fold”. Besides, the “Concentration slopes of accumulation, PΔ3_1 min” value in [8] (1 min incubation) turned out to be 2.99. The “Concentration slopes of accumulation, PΔ3_40 min” value in data set [8] (40 min incubation) is 1.33. Also, the “effect … on accumulation” value in data set [5] (setting [12]) was “inactivation of efflux led to significantly higher levels of accumulation”. For the same molecule, the “Concentration slopes of accumulation, PAO1-Pore_1 min” value in [9] (1 min incubation) is 3.53. The “Concentration slopes of accumulation, PAO1-Pore_40 min” value in [9] (40 min incubation) was 3.32.

Take `Cc1cc(C(C)(C)C)c(O)c(C)c1CC1=NCCN1` [Oxymetazoline]: the MIC was 1000 µM (≈ 260 µg/mL) in data set [1] (PΔ3-Pore, LB broth, Table 1); above 1000 µM in data set [2] (setting [11]); above 1000 µM in [3] (PAO1); 1000 µM (≈ 260 µg/mL) in data set [4]. In data set [5] (PΔ3-Pore cells, 30 min incubation, 0.1 mL wash), the “accumulated radioactivity washed out of cells” value stood at 95%. Moreover, the “effect … on accumulation” value in data set [5] (setting [12]) is “Efflux inactivation or hyperporination resulted in a similar increase”.

With `CN(C)[C@@H]1C(O)=C(C(N)=O)C(=O)[C@@]2(O)C(O)=C3C(=O)c4c(O)cccc4[C@@](C)(O)[C@H]3C[C@@H]12` [Tetracycline], the MIC in data set [1] (PΔ3-Pore, LB broth, Table 1) is 0.78 µM and 0.35 µg/mL; in data set [2] (setting [11]) it was 12.5 µM and 5.56 µg/mL; in [3] (PAO1) it was 0.39 µM and 0.17 µg/mL; in data set [4], 0.78 µM and 0.35 µg/mL. For the same molecule, the MICs in data set [1] (LB broth) was 0.78; in data set [3], 0.39-1.56. Besides, the “effect … on accumulation” value in data set [5] (not told) was “equally affected by inactivation of efflux and hyperporination”.

For the molecule `CN[C@H](CC(C)C)C(=O)N[C@H]1C(=O)N[C@@H](CC(N)=O)C(=O)N[C@H]2C(=O)N[C@H]3C(=O)N[C@H](C(=O)N[C@H](C(=O)O)c4cc(O)cc(O)c4-c4cc3ccc4O)[C@H](O)c3ccc(c(Cl)c3)Oc3cc2cc(c3O[C@@H]2O[C@H](CO)[C@@H](O)[C@H](O)[C@H]2O[C@H]2C[C@](C)(N)[C@H](O)[C@H](C)O2)Oc2ccc(cc2Cl)[C@H]1O` [vancomycin], in [10], the “susceptibility in spot assay” value is “highly susceptible”.
